For one data set, the system named is S. pneumoniae 22257. The data set is described as follows: Combination Time-kill kinetics. The format is cell-based. To be noted: antibiotic alone at 4 × MIC (Azithromycin 0.12 ug/ml, Cefuroxime 8 ug/ml). Here is the method:
(§1) As used herein, “synergy” refers to the in vitro effect of administration of a combination of an antibacterial agent such as a Fab I inhibiter, and antiinfective agent such that (1) the fractional inhibitory concentration (FIC) is less than or equal to 0.5 in an FIC assay described herein; or (2) there is at least a 100-fold (2 log10) increase in killing at 24 hours for the combination as compared with the bioactive agent alone in a time kill curve assay as described herein. An FIC of ≦0.5 is evidence of synergy. An additive response has an FIC value of >0.5 and less than or equal to 1, while an indifferent response has an FIC value of >1 and ≦2. An additive effect may still indicate that the combination of bioactive agent and cationic peptide are therapeutically useful.

The test system of data set [1] is S. pneumoniae 22425, a penicillin and macrolide resistant clinical isolate. The data set is described as follows: Combination time-kill studies. The format is cell-based. To be noted: for effect of compound G on the bactericidal activity (kill kinetics, kill extent) of the antibiotic: combination with compound G at 0.03 μg/ml and 1 μg/ml, S. pneumoniae. As for the experimental part: Combination time-kill studies were performed as follows. Bacterial inocula were prepared as for MIC determination according to CLSI guidelines. Log phase cells (˜10^6 CFU/ml) were inoculated into 24 well plates and incubated with the indicated concentrations of compound G and commercial antibiotics for 24 hours at 35° C. At indicated time points samples were removed for determination of viable CFU counts. Results are plotted as log CFU/ml vs. time.

The next data set deals with S. pneumoniae 22425. Nature of the data set: Combination Time-kill kinetics. The format is cell-based. To be noted: Gatifloxacin alone, 4 × MIC (2 ug/ml). As for the experimental part: as §1
The next data set relates to E. faecalis A6221420. Nature of the data set: Combination Time-kill kinetics. The format is cell-based. To be noted: Meropenem alone, 4 × MIC (16 ug/ml). As for the experimental part: as §1
The subject of a further data set is S. aureus strains. Nature of the data set: Checkerboard combination studies of compound G and commercial antibiotics (FIG. 6). The format is cell-based. To be noted: in combination with compound G, S. aureus strains tested. As for the experimental part: Checkerboard experiments were performed and analyzed according to standard procedures as outlined below.

Marks after values point to notes of the source that are not given here.

With `CC[C@H]1OC(=O)[C@H](C)[C@@H](O[C@H]2C[C@@](C)(OC)[C@@H](O)[C@H](C)O2)[C@H](C)[C@@H](O[C@@H]2O[C@H](C)C[C@H](N(C)C)[C@H]2O)[C@](C)(O)C[C@@H](C)CN(C)[C@H](C)[C@@H](O)[C@]1(C)O` [Azithromycin, reference compound], in the data set on S. pneumoniae 22257, the “logCFU/ml at Time (hr): 0” value is on record as 6.35 logCFU/ml, the “logCFU/ml at Time (hr): 3” value is 4.53 logCFU/ml, the “logCFU/ml at Time (hr): 6” value stood at 3.39 logCFU/ml and the “logCFU/ml at Time (hr): 8” value is listed as ≤ 1.70* logCFU/ml. Besides, in the data set on S. pneumoniae 22257, the “logCFU/ml at Time (hr): 24” value is on record as ≤ 1.70* logCFU/ml and the “ΔlogCFU/ml (24-0 hr)” value is on record as −4.65 logCFU/ml. Besides, the “effect of compound G on the bactericidal activity (kill kinetics, kill extent) of the antibiotic” value (“effect of compound G” below) in data set [1] is “no effect”.

As to `CO/N=C(\C(=O)N[C@@H]1C(=O)N2C(C(=O)O)=C(COC(N)=O)CS[C@H]12)c1ccco1` [Cefuroxime, reference compound], in the data set on S. pneumoniae 22257, the “logCFU/ml at Time (hr): 0” value is recorded as 6.39 logCFU/ml, the “logCFU/ml at Time (hr): 3” value stood at 1.92 logCFU/ml, the “logCFU/ml at Time (hr): 6” value was determined as 1.70 logCFU/ml and the “logCFU/ml at Time (hr): 8” value is reported as ≤ 1.70* logCFU/ml. In the data set on S. pneumoniae 22257, the “logCFU/ml at Time (hr): 24” value is ≤ 1.70* logCFU/ml and the “ΔlogCFU/ml (24-0 hr)” value is on record as −4.69 logCFU/ml. The “effect of compound G” value in data set [1] is listed as “no effect”.

As usually defined, the melting point is the temperature, or range, at which the solid turns liquid. Compound `CN(Cc1cc2ccccc2n1C)C(=O)/C=C/c1ccc(N2C(=O)CCC2=O)nc1` [Example 213, (E)-3-[6-(2,5-Dioxo-pyrrolidin-1-yl)pyridin-3-yl]-N-methyl-N-(1-methyl-1H-indol-2-ylmethyl)acrylamide] showed a melting point of 185 to 187 °C.

With `CN(Cc1cc2ccccc2n1C)C(=O)/C=C/c1ccc(NC(=O)CCC(N)=O)nc1` [Example 214, (E)-N-(5-{2-[Methyl-(1-methyl-1H-indol-2-ylmethyl)carbamoyl]vinyl}pyridin-2-yl)succinamide], the melting point is 225 to 227 °C.

For `CN1CCN(C(=O)CCC(=O)Nc2ccc(/C=C/C(=O)N(C)Cc3cc4ccccc4n3C)cn2)CC1` [Example 215, (E)-N-(5-{2-[Methyl-(1-methyl-1H-indol-2-Ylmethyl)carbamoyl]vinyl}pyridin-2-yl)-4-(4-methyl-piperazin-1-yl)-4-oxo-butyramide], the melting point is 145 to 147 °C (dec.).

As to `CN(Cc1cc2ccccc2n1C)C(=O)/C=C/c1ccc(NC(=O)CCC(=O)N2CCOCC2)nc1` [Example 216, (E)-N-(5-{2-[Methyl-(1-methyl-1H-indol-2-ylmethyl)carbamoyl]vinyl}pyridin-2-yl)-4-morpholin-4-yl-4-oxo-butyramide], the melting point was 206 to 209 °C (dec.).

For `COc1c(N2CCNC(C)C2)c(F)cc2c(=O)c(C(=O)O)cn(C3CC3)c12` (stereo not drawn) [Gatifloxacin, reference compound], in the data set with S. pneumoniae 22425, the “logCFU/ml at Time (hr): 0” value is recorded as 5.18 logCFU/ml, the “logCFU/ml at Time (hr): 2” value was determined as 4.26 logCFU/ml, the “logCFU/ml at Time (hr): 6” value was found to be 2.77 logCFU/ml and the “logCFU/ml at Time (hr): 24” value is recorded as ≤ 1.70* logCFU/ml. The “ΔlogCFU/ml (24-0 hr)” value in the data set on S. pneumoniae 22425 is recorded as −3.48 logCFU/ml. In data set [1] (antibiotic alone, S. pneumoniae 22425, 24 hours, FIG. 8), the “bactericidal activity, log reduction in CFU at 24 hours” value was −3.5 log. For the same compound, the “effect of compound G” value in data set [1] is “no effect”.

`C[C@@H](O)[C@H]1C(=O)N2C(C(=O)O)=C(S[C@@H]3CN[C@H](C(=O)N(C)C)C3)[C@H](C)[C@H]12` [Meropenem, reference compound]: in the data set on E. faecalis A6221420, the “logCFU/ml at Time (hr): 0” value turned out to be 5.12 logCFU/ml, the “logCFU/ml at Time (hr): 2” value amounted to 4.31 logCFU/ml, the “logCFU/ml at Time (hr): 4” value came out at 3.41 logCFU/ml and the “logCFU/ml at Time (hr): 8” value was determined as 2.67 logCFU/ml. In addition, in the data set with E. faecalis A6221420, the “logCFU/ml at Time (hr): 24” value is ≤ 1.70* logCFU/ml and the “ΔlogCFU/ml (24-0 hr)” value is given as −3.43 logCFU/ml.

As for `CC(=O)NC[C@H]1CN(c2ccc(N3CCOCC3)c(F)c2)C(=O)O1` [linezolid], the “combination effect with compound G (synergistic / additive / antagonism)” value in the data set on S. aureus strains is on record as “synergistic effect”.

Regarding Gentamicin, the “combination effect with compound G (synergistic / additive / antagonism)” value in the data set with S. aureus strains is “synergistic effect”.

(Values after patent US7879872B2, “Compositions comprising multiple bioactive agents, and methods of using the same” (Affinium Pharmaceuticals, Inc., priority 2003, dated 2011).)
